Literature values, collected in patent US20160331794A1, “COMPOSITION FOR USE IN THE TREATMENT OF PERSISTENT COUGH” (ABOCA S.P.A SOCIETÁ AGRICOLA, priority 2013, published 2016).

Legend:
night cough in children = conditions: Yoder et al. 2006; cited from earlier work
cough = conditions: Lee et al. 2000; cited from earlier work

Compound | diminishing night cough in children versus placebo (night cough in children) | efficacy in the treatment of coughs versus placebo (cough)
CN(C)CCOC(c1ccccc1)c1ccccc1 [diphenhydramine] | Neither dextromethorphan nor diphenhydramine have been found to be better than the placebo | –
COc1ccc2c(c1)[C@]13CCCC[C@@H]1[C@H](C2)N(C)CC3 [dextromethorphan] | Neither dextromethorphan nor diphenhydramine have been found to be better than the placebo | only marginally better than the placebo
